Laboratory results taken from patent publication US7230033B2, “Pest control compositions and methods for their use” (United States of America as represented by the Secretary of …, priority 2000, dated 2007).

Experiments:
[1] = test system: adult I. scapularis ticks; assay: Treated-vial biocidal screening with 2% acetone solutions (Example 2), adult ticks, residual; type: in vivo, Ixodes scapularis; conditions: treated vials sat 4 wk; arthropods added for the final 24 h
Experimental: (§1) Samples of the compounds listed below were obtained as described in Example 1, and screened for biocidal activities against nymphal Ixodes scapularis. In this example, 2% acetone solutions (wt/vol) of the compounds were applied to inner surfaces of 2-dram friction cap vials. Vials and caps were treated then allowed to dry for a minimum of 4 hours before placing 10 nymphs in each container. These same vials were used to challenge additional nymphs and adult I. scapularis ticks and adult Xenopsylla cheopis fleas through five weeks to observe any possible residual activity.
(§2) Numbers in parentheses refer to length of treatment in terms of hours (h) or weeks (wk). Data is presented in terms of number killed/number tested. For test periods longer than 24 hours, the treated vials were allowed to sit for the stated period after drying (72 h, 4 wk, or 5 wk) and each group of arthropods was added to the vials for the final 24 h of the test period.

[2] = test system: adult Xenopsylla cheopis fleas; assay: Treated-vial biocidal screening with 2% acetone solutions (Example 2), adult fleas, residual; type: in vivo; conditions: treated vials sat 5 wk; arthropods added for the final 24 h
Experimental: as §1, §2

[3] = test system: ticks, fleas, formicids and termites; assay: Persistence of biocidal activity in vials treated with 2% solutions (Example 5); type: in vivo; conditions: at 11 weeks
Experimental: as §1
Persistence of biocidal activity was determined for nootkatone and valencene-11,12-epoxide by using the vials as treated with the 2% solutions of Example 2. This bioassay employed groups of ticks, fleas, formicids and termites using a method similar to that described in Example 2. […] At 11 weeks, the biocidal activity began to dissipate below the 100% mortality level.

[4] = test system: I. scapularis nymphs; assay: Tick bioassay, treated 2-dram vials, probit analysis; type: in vivo, Ixodes scapularis
From the text: A control treated with acetone only was run with each series.
For each time point, if ticks and fleas were incapable of movement, maintaining normal posture, leg coordination, ability to right themselves, or any signs of life, they were considered moribund or dead.

[5] = test system: Ae. aegypti adults; assay: Adult mosquito bottle bioassay; type: in vivo, Aedes aegypti
[6] = test system: Xenopsylla cheopis adults; assay: Residual activity, aged treated vials, fleas; type: in vivo
Experimental: Briefly, groups of 10 nymphal I. scapularis and X. cheopis fleas were used in all tests (more than a total of 5,240 nymphs and 4,860 fleas were exposed to the compounds). The inner surface of 2-dram friction cap vials were treated with the compound/acetone solution, or acetone only as a control, and left to air-dry overnight (see also, Panella et al., J. Med. Entomol., 42(3):352-358, 2005. Three to 4 holes were made in the plastic cap to allow for air exchange. Nymphal ticks and adult fleas were then placed directly into the vials using forceps. Vials containing ticks or fleas were placed in desiccators for 24 h at 21° C. and 90% RH. Morbidity and mortality was recorded at 1, 2, 4, 8, and 24 h after initial exposure.

[7] = test system: Aedes aegypti adults; assay: Residual activity, aged treated bottles, mosquitoes; type: in vivo
Experimental: Adult mosquitoes were tested using the bottle bioassay method of Brogden and McAllister (J. Am. Mosq. Control Assoc., 14:159–64, 1998) with minor modifications. Natural product extracts were two-fold serially diluted for a total of 8 concentrations ranging from 0.002% to 0.25% in 1.5 ml of acetone. Individual dilutions were added to 250 ml Wheaton glass bottles and capped. Bottles were manipulated to evenly coat all inner surfaces. The caps were removed and bottles were allowed to air-dry overnight. Once bottles were completely dry, 10–50 (in some tests 25–50) adult mosquitoes were aspirated into the bottles. Mosquitoes were held in the bottles for 24 h at 23° C. and 85% RH. Morbidity and mortality were recorded at 15, 30, 45, and 60 min and 24 hour intervals. One bottle for each replicate was treated with acetone only and served as a control. The dose-mortality data was evaluated with probit analysis, using the LdP Line software, to determine LC50 and LC90 values.

[8] = test system: Ixodes scapularis nymphal ticks; assay: Tick repellency bioassay; type: in vivo; conditions: listed as Nootkatone (Compound 7)
[9] = test system: Aedes aegypti; assay: Mosquito susceptibility, serial dilutions (Example 8); conditions: in vivo
[10] = 24 h exposure, NE = not effective at concentrations tested
[11] = Ixodes scapularis nymphal ticks, alone, or 1:1 with carvacrol (in parenthesis)
[12] = Aedes aegypti adult mosquitoes, alone, or 1:1 with carvacrol (in parenthesis)
[13] = 1 h after compound applied to applicator
[14] = 4 h after compound applied to applicator

## C=C(C)[C@@H]1CCC2=CC(=O)C[C@@H](C)[C@]2(C)C1 [Compound 7, Nootkatone]
[1]
  I. scapularis adults (4 wk), number killed/number tested: 5/5
[2]
  X. cheopis adults (5 wk), number killed/number tested: 5/5
[3]
  mortality level: < 100%
[4]; [10]
  LC90: 0.0055 percent concentration, wt:vol
[4]; 24 h exposure, probit
  Slope: 4.708
[4]; [11]
  LC50 (1 h): 0.126 % (wt:vol)
  LC50 (24 h): 0.0029 % (wt:vol)
  LC90 (1 hr): 0.725 % (wt:vol)
  LC90 (24 h): 0.0055 % (wt:vol)
[4]; Ixodes scapularis nymphal ticks, alone, or 1:1 with carvacrol (in parenthesis), listed as compound 7
  LC50 (24 h): 0.0029 % (wt:vol)
[5]; [10]
  LC90: 0.0092 percent concentration, wt:vol
[5]; 24 h exposure, probit
  Slope: 6.22
[5]; [12]
  LC50 (15 min): 0.035 % (wt:vol)
  LC50 (24 h): 0.0057 % (wt:vol)
  LC90 (15 min): 0.119 % (wt:vol)
  LC90 (24 h): 0.0092 % (wt:vol)
[5]; Aedes aegypti adult mosquitoes, alone, or 1:1 with carvacrol (in parenthesis), listed as compound 7
  LC50 (15 min): 0.035 % (wt:vol)
[6]; 1 week after treatment
  Slope, residual activity: 2.546
[6]; 1 week after treatment, NE = not effective
  LC90, residual activity: 0.05 percent concentration, wt:vol
[6]; 2 weeks after treatment
  Slope, residual activity: 2.033
[6]; 4 weeks after treatment
  LC50, residual activity: 0.031 percent concentration, wt:vol
[7]; 1 week after treatment
  LC90, residual activity: 0.054 percent concentration, wt:vol
  Slope, residual activity: 3.043
[7]; 2 weeks after treatment
  Slope, residual activity: 3.342
[7]; 2 weeks after treatment, NE = not effective
  LC90, residual activity: 0.046 percent concentration, wt:vol
[7]; 4 weeks after treatment
  Slope, residual activity: 2.698
[7]; 4 weeks after treatment, NE = not effective
  LC90, residual activity: 0.038 percent concentration, wt:vol
[8]; 1 h
  Slope (±SEM): 1.288 (±0.275)
[8]; [13]
  RD50: 0.186 % (wt:vol)
  RD95: 3.514 % (wt:vol)
[8]; 4 h
  Slope (±SEM): 1.291 (±0.277)
[8]; [14]
  RD50: 0.177 % (wt:vol)
  RD95: 3.319 % (wt:vol)
[9]
  A. aegypti LD50: <4.5 × 10^−3
